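The compound was tested at five concentrations on cells cultured in 96-well plates, with a 48-hour exposure period. At the TGI there is no net growth.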
What was measured:
Assay in all cases: NCI-60 cell line screen, 48 h
SNB-75 CNS = test system: SNB-75 CNS
U251 CNS = test system: U251 CNS
CAKI-1 renal = test system: CAKI-1 renal
NCI-H23 lung = test system: NCI-H23 lung
EKVX NSCLC = test system: EKVX NSCLC
SK-MEL-28 melanoma = test system: SK-MEL-28 melanoma
TK-10 renal = test system: TK-10 renal
KM12 colon = test system: KM12 colon
MDA-N = test system: MDA-N
PC-3 prostate = test system: PC-3 prostate
NCI/ADR-RES ovarian = test system: NCI/ADR-RES ovarian
A498 renal = test system: A498 renal

SMILES | TGI (SNB-75 CNS) | TGI (U251 CNS) | TGI (CAKI-1 renal) | TGI (NCI-H23 lung) | TGI (EKVX NSCLC) | TGI (SK-MEL-28 melanoma) | TGI (TK-10 renal) | TGI (KM12 colon) | TGI (MDA-N) | TGI (PC-3 prostate) | TGI (NCI/ADR-RES ovarian) | TGI (A498 renal)
COc1ccc(N2C(=O)C3c4[nH]c5cc(C)ccc5c4C4CCC(C(C)(C)C)CC4C3C2=O)cc1 (centres undefined) | 6.07 µM | > 10 µM | > 10 µM | > 10 µM | > 10 µM | > 10 µM | > 10 µM | > 10 µM | > 10 µM | > 10 µM | > 10 µM | > 10 µM
C/C1=C\[C@H](C)C[C@H](C)OC(=O)[C@H](C)NC(=O)[C@@H](Cc2ccc(O)c(Br)c2)N(C)C(=O)[C@H](C)NC(=O)[C@@H](C)C1 | 0.0904 µM | > 7.76 µM | 0.0274 µM | > 25 µM | > 4.7 µM | > 10.6 µM | 0.269 µM | > 25 µM | > 25 µM | 24.6 µM | > 19.8 µM | 0.051 µM
COc1cc(O)c2c(=O)c(OC)c(-c3ccc(OC)c(O)c3)oc2c1 | > 100 µM | > 100 µM | 74.4 µM | > 100 µM | > 100 µM | > 100 µM | > 100 µM | > 100 µM | > 100 µM | > 100 µM | > 100 µM | 15.3 µM
COc1ccc2oc(=N)c(C(=O)Nc3ccccc3)cc2c1 | 28 µM | 55.1 µM | > 100 µM | 51.8 µM | > 100 µM | > 100 µM | > 100 µM | > 100 µM | 48.4 µM | > 100 µM | 44 µM | 39.8 µM
Cc1cc(C[C@H]2O[C@@H]3OC(C)(C)O[C@@H]3[C@H]3OC(C)(C)O[C@H]32)c2ccccc2n1 | > 100 µM | > 100 µM | > 100 µM | > 100 µM | > 100 µM | > 100 µM | > 100 µM | > 100 µM | > 100 µM | > 100 µM | > 100 µM | > 100 µM
O=C(CCSC1=NCCCN1)c1ccc(F)cc1 | 42.6 µM | 44.8 µM | 46.9 µM | 43.4 µM | 27.5 µM | 34.6 µM | 30.8 µM | 46.6 µM | 32.4 µM | 31 µM | > 91.5 µM | 44.2 µM
CSc1nc2c(c(N(C)C)n1)C(O)n1c(nc3ccccc31)S2 (centres undefined) | 74.2 µM | > 55.5 µM | > 100 µM | > 100 µM | > 100 µM | > 100 µM | > 100 µM | > 100 µM | > 100 µM | > 100 µM | > 100 µM | > 100 µM
O=C1c2cccc3cccc(c23)C(=O)N1CCCNCCCCNCCCNCCCN1C(=O)c2cccc3cccc(c23)C1=O | 1.46 µM | 1.73 µM | 17.3 µM | 1.72 µM | 5.67 µM | 2.95 µM | 12.1 µM | 1.83 µM | 2.11 µM | 1.76 µM | 49.6 µM | 2.47 µM
CC(C)(CO)CNc1nc(N)nc(Cl)c1/C=N/O | > 100 µM | > 100 µM | > 100 µM | > 100 µM | > 100 µM | > 100 µM | > 100 µM | > 100 µM | > 100 µM | > 100 µM | > 100 µM | > 100 µM
CC(C)(C)OC(=O)NC(CSSCC(NC(=O)OC(C)(C)C)C(=O)O)C(=O)O (centres undefined) | > 100 µM | > 100 µM | > 100 µM | > 100 µM | > 100 µM | > 100 µM | > 100 µM | > 100 µM | > 100 µM | > 100 µM | > 100 µM | > 100 µM
Nc1ncnc2c1ccn2C/C=C/CO | > 100 µM | > 100 µM | > 100 µM | > 100 µM | > 100 µM | > 100 µM | > 100 µM | > 100 µM | > 100 µM | > 100 µM | > 100 µM | > 100 µM
O=C1CSC2(CC(/C=C/c3cccs3)=NN2c2cccc(S(=O)(=O)O)c2)N1c1nc2ccccc2s1 (centres undefined) | > 100 µM | > 100 µM | > 100 µM | > 100 µM | > 100 µM | > 100 µM | > 100 µM | > 100 µM | > 100 µM | > 100 µM | > 100 µM | 92.7 µM
Cc1ccc2c(c1)c1ccc3c(c1n2C)C(=O)C=CC3=O | > 10 µM | > 10 µM | 4.17 µM | 5.82 µM | > 7.07 µM | 4.76 µM | 3.76 µM | > 10 µM | 3.65 µM | > 9.27 µM | > 7.53 µM | > 8.82 µM
CC(C)N1CCN(c2ccc(OCC3COC(Cn4cncn4)(c4ccc(Cl)cc4Cl)O3)cc2)CC1 (centres undefined) | 27.5 µM | 26.7 µM | 40.3 µM | 30.9 µM | 30.6 µM | 12.3 µM | 26.1 µM | 28.8 µM | 16.6 µM | 35.1 µM | 54.9 µM | 27.4 µM
C=C1C(=O)[C@@]23CC[C@@H]4[C@@]5(C)CCC[C@@]4(OC5=O)[C@@]2(C)CC[C@@H]1C3 | 13.1 µM | 7.05 µM | 2.32 µM | 4.49 µM | 11.8 µM | 10.3 µM | 2.44 µM | 10.2 µM | > 100 µM | 5.31 µM | 21.4 µM | 11.8 µM
COc1ccc(-c2nc3ccccc3c(=S)n2OC(C)=O)cc1 | > 25 µM | > 25 µM | > 25 µM | > 25 µM | > 25 µM | > 25 µM | > 25 µM | > 25 µM | > 25 µM | > 25 µM | > 25 µM | > 25 µM
C=CCn1c(=O)ccn(/C(=C/C(=O)OCC)C(=O)OCC)c1=O | 30.4 µM | 27.6 µM | 4.19 µM | 36.4 µM | 38.2 µM | 30.6 µM | 24.1 µM | 32.9 µM | 31.3 µM | 27.9 µM | 50.8 µM | 33.3 µM
CCOC(=O)C(NC(=O)CC)(N1CCN(c2cc3c(cc2F)c(=O)c(C(=O)O)cn3C2CC2)CC1)C(F)(F)F (centres undefined) | > 100 µM | > 100 µM | > 100 µM | > 100 µM | > 100 µM | > 100 µM | > 100 µM | > 100 µM | > 100 µM | > 100 µM | > 100 µM | > 100 µM
COc1ccc(C(=O)NCCN(C)C)c2nc3ccccc3cc12 | 13.3 µM | 7.62 µM | 7.59 µM | 2.2 µM | 6.68 µM | 7.11 µM | 5.42 µM | 7.79 µM | 4.38 µM | 4.82 µM | 5.22 µM | 3.76 µM
Cc1cc(N(C)C)c2ccccc2[n+]1CCCCCCCCCC[n+]1c(C)cc(N(C)C)c2ccccc21 | 8.91 µM | 11.5 µM | 20 µM | 5.32 µM | 35.3 µM | 3.54 µM | 18 µM | 1.61 µM | 2.73 µM | 7.48 µM | 43.9 µM | 14 µM
O=c1c2c(no[n+]2[O-])c2ccccc2n1-c1ccccc1 | 19.2 µM | 16.1 µM | 6.39 µM | 5.53 µM | 24.5 µM | 17 µM | 27.2 µM | 22 µM | 9.56 µM | 21.4 µM | 21.6 µM | 22.2 µM
CCN(CC)c1ccc(/C=C/c2ccnc3ccccc23)cc1 | > 100 µM | > 100 µM | > 100 µM | > 100 µM | > 100 µM | > 100 µM | > 100 µM | > 100 µM | > 100 µM | > 100 µM | > 100 µM | > 100 µM

Source: PubChem BioAssay (NCI)
